Measurements from paper PMC8778091, “In Silico-Based Discovery of Natural Anthraquinones with Potential against Multidrug-Resistant E. coli” (Pharmaceuticals, 2022).
≈ marks a conversion by molar mass, not a printed value. Like-named read-outs stand apart in the source and are kept apart here.

How the values were obtained:
[1] = Cellular toxicity against normal fibroblasts WI-38 (MTT); assay type: cell-based; conditions: human
Protocol: All selected top-scoring compounds were tested for their cellular toxicity against human fibroblasts cell line (WI-38). Cell line (WI-38; ATCC: CCL-75) was maintained in earth RPMI 1640 medium comprising 10% heat-inactivated fetal bovine serum (FBS) and grown at 37 °C and 5% CO2. The cell line was seeded on 96-well cell culture plates (2 × 10^4 cells/well). Cells were stimulated with tested compounds at different concentrations (from 1 to 50 µM) overnight in triplicates. Doxorubicin was used as a positive control. Cell viability was assessed by MTT assay. To normalize cell viability values, each plate included a triplicate of untreated cells considered as 100% viability, and a triplicate of cells treated with a cytotoxic mixture (200 ng/mL TNF, 200 ng/mL CD95L, 200 ng/mL TRAIL, 5 μg/mL CHX, 1% (w/v) sodium azide […]) considered as 0% viability. All other viability values were normalized according to the averages of these triplicates and analyzed by the Graph Pad Prism 5 software (La Jolla, CA, USA).

[2] = tested on: VRSA (clinical isolate); assay: MIC, agar dilution method, VRSA; assay type: cell-based, S. aureus; conditions: for MIC: Staphylococcus aureus, VRSA, read-out: MIC VRSA
Protocol: (§1) The selected top-scoring hits were evaluated for their antibacterial effect against two clinical multidrug-resistant strains of enterotoxigenic E. coli. Both isolates were isolated as clinical samples from Beni Suef general hospital, Beni Suef, Egypt. […] MRSA (ATCC 25529) and VRSA (clinical isolate from Beni Suef general hospital, Beni Suef, Egypt) were also used to further evaluate the tested compounds against resistant Gram-positive bacteria.
(§2) Minimum inhibitory concentrations for the test compounds were analyzed following the standard agar dilution method using Meuller-Hinton (MH) agar medium against different Gram-negative and positive bacteria (Table 1). Firstly, the tested compounds were prepared as a stock suspension with a 10 mg/mL final concentration in DMSO. Subsequently, the prepared stocks were diluted in 10 mL molten soft agar (0.5% agar) to obtain a concentration range from 1–64 µg/mL, then mixed and poured over a surface of MH agar (2% agar) plates and left for solidification. Finally, exponentially grown (O.D 600 nm of 0.6) test strains (Table 1) were diluted to a final density of 10^6 CFU/mL in MH broth and spotted (1 µL/spot) over the soft agar. Then, the plates were left for drying and incubated at 37 °C for 18–20 h. Controls were conducted using DMSO seeded soft agar. At the end of the experiment, the MIC for each compound was identified as the minimum concentration that inhibited the growth of the tested strain. The experiments were carried out in triplicates.

[3] = tested on: E. coli (MDR) a clinical isolate; assay: MIC, agar dilution method, E. coli MDR a; assay type: cell-based; conditions: for MIC: Escherichia coli; for MIC (antibiotic susceptibility) E. coli MDRa: Table S3, unpublished data of microbiology unit, Beni Suef general hospital, same procedure
Protocol: as §1, §2

[4] = tested on: E. coli (MDR) b clinical isolate; assay: MIC, agar dilution method, E. coli MDR b; assay type: cell-based; conditions: for MIC: Escherichia coli, read-out: MIC E. coli (MDR) b; for MIC (antibiotic susceptibility) E. coli MDRb: Table S3, unpublished data of microbiology unit, Beni Suef general hospital, same procedure
Protocol: as §1, §2

[5] = biological target: T1, E. coli gyrase B43 domain (Gyr-B) (Escherichia coli, UniProt P0AES6); assay: biochemical; assay type: biochemical
T1 construct: 20 μL of the enzyme (E. coli gyrase B43 domain; 20 μM concentration); purchased Inspiralis ATPG001
Protocol: (§3) Ddl-B and Gyr-B activity assays were performed according to the manufacturer protocols (ProFoldin, Catalogue No. DDA100KE, and Inspiralis, Catalogue No. ATPG001, UK).
Gyr-B assay measured the capability of the tested compounds to hinder the ATPase activity of Gyr-B subunits. This assay links the hydrolysis of ATP by gyrase to the conversion of NADH to NAD^+, which can be measured by a change in absorbance at 340 nm. The assay reactions and detection were performed using a 96-well plate. […] First, the assay mix was prepared by mixing 20 μL of the assay buffer (50 mM Tris.HCl (pH 7.5), 1 mM EDTA, 5 mM magnesium chloride, 5 mM DTT, 10% (w/v) glycerol), 1 μL phosphoenolpyruvate (80 mM in water), 1.5 μL pyruvate kinase/lactate dehydrogenase stock, 2 μL NADH (20 mM in water), and 58.8 μL water. Thereafter, 63.3 μL of assay mix and 10 μL of the test compound solution and 20 μL of the enzyme (E. coli gyrase B43 domain; 20 μM concentration) were added into the wells and mixed by pipetting. After incubation for 10 min at 25 °C, 6.7 uL of ATP (30 mM) was added to each well. After 60 min of incubation at 25 °C, the absorbance was measured at 340 nm.

[6] = biological target: T2, E. coli DAla:D-Ala ligase (Ddl-B) (Escherichia coli, UniProt P07862); assay: Ddl-B enzymatic activity assay (inorganic phosphate, absorbance 650 nm); assay type: biochemical
T2 construct: purchased ProFoldin DDA100KE
Protocol: as §3
Ddl-B enzymatic activity assay is based on measuring the inorganic phosphate generated from the D-Alanine: D-Alanine ligation reaction. The inorganic phosphate is detected by absorbance at 650 nm. The assay reactions and detection were performed by using a 96-well plate. Different concentrations of the test compounds and the reference inhibitor D-cycloserine were prepared in DMSO (from 10 µM to 1000 µM). […] Thereafter, 33 μL of 10× enzyme substrate was prepared by mixing 3.3 μL of 100× enzyme substrate with 29.7 μL of water. Finally, 27 μL of the premix with 3 μL of the 10× enzyme substrate in each well were mixed. After 60 min of incubation at 37 °C, 45 μL of MPA3000 dye was added into the 30 μL of the reaction mixture. After 5 min of incubation, absorbance was measured at 650 nm.

[7] = tested on: MRSA (ATCC 25529); assay: MIC, agar dilution method, MRSA; assay type: cell-based, S. aureus; conditions: Staphylococcus aureus, read-out: MIC MRSA
Protocol: as §1, §2

[8] = WI-38, 1 to 50 µM overnight, MTT, read-out: CC50
[9] = range 1-64 µg/mL, 37 °C, 18-20 h
[10] = 10-1000 µM tested, read-out: IC50 Ddl-B
[11] = WI-38 normal fibroblast cells, WI-38, 1 to 50 µM overnight, MTT, read-out: CC50
[12] = MDR isolates a and b not distinguished, read-out: MIC E. coli
[13] = range 1-64 µg/mL, 37 °C, 18-20 h, read-out: MIC E. coli (MDR) a

Compound | IC50 [5] [µM] | Ki [5] [µM] | Ddl-B inhibition in words [6] | IC50 [6, 10] [µM] | Ki ([6]; read-out: Ki Ddl-B) [µM] | MIC (antibiotic susceptibility) E. coli MDRb [4] [mg/L] | MIC [2, 9] [mg/L] | MIC [3, 13] [mg/L] | MIC [4, 9] [mg/L] | MIC [7, 9] [mg/L] | also measured
O=C1c2ccccc2C(=O)c2c1ccc(O)c2O [Alizarin] | 17.9 ± 1.2 | 10.4 ± 1.1 | moderately inhibited | 468 ± 6.5 | 220 ± 4.3 |  |  |  |  |  | CC50 [1, 8]: 25.9 ± 0.69 µM; MIC [2]: > 64 mg/L; MIC VRSA [2, 9]: >64 mg/L; MIC ([3]; read-out: MIC E. coli): 64 mg/L (≈ 266 µM); MIC ([3]; read-out: MIC E. coli (MDR) a): 64 mg/L (≈ 266 µM); MIC [4]: > 64 mg/L; Gyr-B inhibition in words [5]: moderately inhibited; MIC [7]: 64 mg/L (≈ 266 µM)
NCC[C@H](O)C(=O)N[C@@H]1C[C@H](N)[C@@H](O[C@H]2O[C@H](CN)[C@@H](O)[C@H](O)[C@H]2O)[C@H](O)[C@H]1O[C@H]1O[C@H](CO)[C@@H](O)[C@H](N)[C@H]1O [Amikacin, reference compound] |  |  |  |  |  | 8 (≈ 13.7 µM) |  |  |  |  | 
CC1(C)S[C@@H]2[C@H](NC(=O)[C@H](N)c3ccccc3)C(=O)N2[C@H]1C(=O)O [Ampicillin, reference compound] |  |  |  |  |  | > 64 |  |  |  |  | MIC (antibiotic susceptibility) E. coli MDRa [3]: > 64 mg/L
O=C1c2cccc(O)c2C(=O)c2cccc(O)c21 [Anthrarufin] | 6.93 ± 1.6 | 4.1 ± 1.6 | comparable to the reference inhibitor D-cycloserine | 350 ± 7.4 | 345 ± 10.1 |  | > 64 | 2 (≈ 8.33 µM) | 2 (≈ 8.33 µM) | 2 (≈ 8.33 µM) | CC50 [1, 11]: 29.7 ± 0.76 µM; MIC VRSA [2, 9]: >64 mg/L; MIC [3, 12]: 2 mg/L (≈ 8.33 µM); Gyr-B inhibition in words [5]: moderate activity
CC[C@H]1OC(=O)[C@H](C)[C@@H](O[C@H]2C[C@@](C)(OC)[C@@H](O)[C@H](C)O2)[C@H](C)[C@@H](O[C@@H]2O[C@H](C)C[C@H](N(C)C)[C@H]2O)[C@](C)(O)C[C@@H](C)CN(C)[C@H](C)[C@@H](O)[C@]1(C)O [Azithromycin, reference compound] |  |  |  |  |  | 16 (≈ 21.4 µM) |  |  |  |  | 
CO/N=C(\C(=O)N[C@@H]1C(=O)N2C(C(=O)O)=C(COC(C)=O)CS[C@H]12)c1csc(N)n1 [Cefotaxime, reference compound] |  |  |  |  |  | 64 (≈ 141 µM) |  |  |  |  | MIC (antibiotic susceptibility) E. coli MDRa [3]: 32 mg/L (≈ 70.3 µM)
CC(C)(O/N=C(\C(=O)N[C@@H]1C(=O)N2C(C(=O)[O-])=C(C[n+]3ccccc3)CS[C@H]12)c1csc(N)n1)C(=O)O [Ceftazidime, reference compound] |  |  |  |  |  | 16 (≈ 29.3 µM) |  |  |  |  | MIC (antibiotic susceptibility) E. coli MDRa [3]: 32 mg/L (≈ 58.5 µM)
N[C@@H]1CON=C1O [D-cycloserine, reference compound] |  |  |  | 362 | 118 ± 11.7 |  | 32 (≈ 313 µM) | 16 (≈ 157 µM) | 16 (≈ 157 µM) | 32 (≈ 313 µM) | 
COc1cccc2c1C(=O)c1c(O)c3c(c(O)c1C2=O)C[C@@](O)(C(=O)CO)C[C@@H]3O[C@H]1C[C@H](N)[C@H](O)[C@H](C)O1 [Doxorubicin, reference compound] |  |  |  |  |  |  |  |  |  |  | CC50 [1]: 26.2 ± 0.61 µM
C[C@H]1COc2c(N3CCN(C)CC3)c(F)cc3c(=O)c(C(=O)O)cn1c23 [Levofloxacin, reference compound] |  |  |  |  |  |  |  |  |  |  | MIC (antibiotic susceptibility) E. coli MDRa [3]: 16 mg/L (≈ 44.3 µM)
CO[C@@H]1[C@@H](OC(N)=O)[C@@H](O)[C@H](Oc2ccc3c(O)c(NC(=O)c4ccc(O)c(CC=C(C)C)c4)c(=O)oc3c2C)OC1(C)C [Novobiocin, reference compound] |  |  |  |  |  |  | 1 (≈ 1.63 µM) | 64 (≈ 104 µM) | 64 (≈ 104 µM) | 1 (≈ 1.63 µM) | 
COc1cc(O)c2c(c1)C(=O)c1cc(C)cc(O)c1C2=O [Physcion] | 10.9 ± 0.5 | 6.6 ± 0.9 | more potent | 244 ± 7.2 | 119 ± 9.1 |  | 2 (≈ 7.04 µM) | 2 (≈ 7.04 µM) | 2 (≈ 7.04 µM) | 2 (≈ 7.04 µM) | CC50 [1, 11]: > 50 µM
O=C1c2ccccc2C(=O)c2c(O)ccc(O)c21 [Quinizarin] | 38.8 ± 2.3 | 17.9 ± 1.4 | moderately inhibited | 515 ± 8.3 | 230 ± 8.3 |  | 16 (≈ 66.6 µM) | 64 (≈ 266 µM) | 64 (≈ 266 µM) | 64 (≈ 266 µM) | CC50 [1, 11]: 20.1 ± 0.56 µM; MIC [3, 12]: 64 mg/L (≈ 266 µM); Gyr-B inhibition in words [5]: moderately inhibited
O=C(O)c1cc(O)c2c(c1)C(=O)c1cccc(O)c1C2=O [Rhein] | 11.5 ± 1.2 | 7.33 ± 0.9 | more potent |  |  |  | 8 (≈ 28.1 µM) | 8 (≈ 28.1 µM) | 2 (≈ 7.04 µM) | > 64 | CC50 [1, 8]: > 50 µM; IC50 [6]: 281 ± 6.1 µM; Ki [6]: 133 ± 2.3 µM
